These results are taken from publication PMC6327999, “Hydroxyl-substituted double Schiff-base condensed 4-piperidone/cyclohexanones as potential anticancer agents with biological evaluation” (Journal of Enzyme Inhibition and Medicinal Chemistry, 2019).

Holding throughout (format): cell-based
For assay [1], the system named is human lung carcinoma cells (A549). Put plainly: Cytotoxicity, MTT assay, A549. Conditions: for IC50: Homo sapiens, A549, MTT, 24 hours; for A549 SI: quotient of the IC50 values towards nonmalignant LO2 cells. The text has this: (§1) Compounds 2a–d, 3a–e, 4a–e, 5a–d, and 6a–c were screened against human neoplastic cell lines such as human lung carcinoma cells (A549), human gastric adenocarcinoma cells (SGC7901), human cervical carcinoma cells (HeLa), human liver hepatocellular carcinoma cell line (Hepg2), human chronic myelogenous leukemia cell line (K562), human acute mononuclear granulocyte leukemia (THP-1), human normal heptical cell line (LO2) (Table 1) using modified MTT assay (3-(4,5-dimethyl-2-thiazolyl)-2,5-diphenyl-2-H-tetrazolium bromide, MTT, Dojindo Laboratories, Tokyo, Japan). All cell lines were maintained at 37 °C in a humidified 5% CO2 and 95% air atmosphere. The HePG2 cell lines were cultured in DMEM containing 10% fetal bovine serum. Other cell lines were grown in medium 1640 and supplemented with 10% fetal bovine serum. […] Controls were prepared with 0.1% DMSO (v/v) only. The cells were seeded in a 96-well plate in 200 µL medium per well at a density of 1 × 10^4 cells/well for 24 hours. The cells were treated with serial concentrations of compound and incubated for 24 hours. Cells with only culture media were used as control. After the media was removed, 20 µL of MTT (5 mg/mL) was added then the plates were incubated for 4 hours at 37 °C in cell culture incubator. The MTT containing media were removed and then 150 µL of DMSO was added to dissolve the dark-blue formazan crystals. The optical density (OD) was measured by a multi-well plate reader (TECAN, Männedorf, Switzerland) at 570 nm. The results are expressed as a decrease in the cell viability (%) in comparison to untreated controls. The concentration of each compound was examined in triplicate, and the IC50 values are expressed in Table 1. The concentrations of the compounds were 50, 20, 10, 5, 2.5, 1, 0.5, 0.1, 0.05 and 0.01 µg/mL. Doxorubicin (DOX) and Curcumin were used as positive controls. […] The concentrations of curcumin used were 100, 50, 25, 12.5, 6.25, 3.125, 1, 0.5 and 0.1 µg/mL.
Background: Tetrazolium assays rely on reduction of a dye to a coloured formazan, in cell work by metabolically active cells.

The test system of assay [2] is human gastric adenocarcinoma cells (SGC7901). Put plainly: Cytotoxicity, MTT assay, SGC7901. Conditions: for IC50: Homo sapiens, SGC-7901, MTT, 24 hours; for SGC7901 SI: quotient of the IC50 values towards nonmalignant LO2 cells.
Description: as §1

For assay [3], the system named is human liver hepatocellular carcinoma cell line (Hepg2). In words: Cytotoxicity, MTT assay, HePG2. Conditions: for IC50: Homo sapiens, HepG2, MTT, 24 hours; for HePG2 SI: quotient of the IC50 values towards nonmalignant LO2 cells.
Description: as §1, with “µg/mL.” for “µg/mL. Doxorubicin (DOX) and Curcumin were used as positive controls.”

The subject of assay [4] is human cervical carcinoma cells (HeLa). In words: Cytotoxicity, MTT assay, HeLa. Conditions: for IC50: Homo sapiens, HeLa, MTT, 24 hours; for HeLa SI: quotient of the IC50 values towards nonmalignant LO2 cells.
Description: as §1

The subject of assay [5] is human chronic myelogenous leukemia cell line (K562). In words: Cytotoxicity, MTT assay, K562. Conditions: for IC50: Homo sapiens, K562, MTT, 24 hours; for K562 SI: quotient of the IC50 values towards nonmalignant LO2 cells.
Description: as §1

Assay [6] has as its system human acute mononuclear granulocyte leukemia (THP-1). Put plainly: Cytotoxicity, MTT assay, THP-1. Conditions: for IC50: Homo sapiens, THP-1, MTT, 24 hours; for THP-1 SI: quotient of the IC50 values towards nonmalignant LO2 cells.
Description: as §1

The test system of assay [7] is human normal heptical cell line (LO2). In words: Cytotoxicity, MTT assay, non-malignant LO2. Conditions: 24 hours, non-malignant cells.
Description: as §1

Assay [8] relates to human carcinoma cell lines A549, SGC7901, HePG2, HeLa, K562, THP-1. In words: Cytotoxicity, MTT assay, panel of human carcinoma cell lines (average / overall). Conditions: average over the six carcinoma cell lines; for IC50: Homo sapiens, read-out: Ave IC50.
Description: as §1
The cytotoxicity activities against human carcinoma cell lines A549, SGC7901, HePG2, HeLa, K562, THP-1 and cytotoxicity toward LO2 cell lines were evaluated by MTT method. DOX and curcumin were used as positive control. The selectivity index (SI) is the quotient of the IC50 values towards nonmalignant LO2 cells. […] Especially for 4a–e, 5a–d, and 6a–c, this ratio can reach about 92%.

One may read the IC50 as the midpoint of a concentration-inhibition curve.

`COc1cc(Br)cc(/C=N/c2cccc(/C=C3\CCC/C(=C\c4cccc(/N=C/c5cc(Br)cc(OC)c5O)c4)C3=O)c2)c1O` [3e]: in assay [1], inhibition was half-maximal at 2500 ± 400 nM (IC50) and the “A549 SI” value is 4.4. In assay [2], 3000 ± 800 nM corresponded to half-maximal inhibition (IC50) and the “SGC7901 SI” value worked out at 3.8. In assay [3], the 50% inhibitory concentration (IC50) was found to be 1900 ± 10 nM and the “HePG2 SI” value is listed as 6.0. For the same compound, in assay [4], the IC50 amounted to 12800 ± 900 nM and the “HeLa SI” value is recorded as 0.9. In assay [5], the IC50 was 4200 ± 100 nM and the “K562 SI” value is 2.7. In assay [6], the IC50 amounted to 3300 ± 100 nM and the “THP-1 SI” value amounted to 3.4. Further, the midpoint of inhibition in assay [7], the IC50, lay at 11300 ± 300 nM. Moreover, in assay [8], the IC50 was 4600 nM and the “Ave SI” value was 3.5.

As for `CN1C/C(=C\c2cccc(/N=C/c3ccccc3O)c2)C(=O)/C(=C/c2cccc(/N=C/c3ccccc3O)c2)C1` [4a], in assay [1], half-maximal inhibition (IC50) was put at 5200 ± 400 nM and the “A549 SI” value is listed as 2.1. Further, in assay [2], the IC50 is 8300 ± 800 nM and the “SGC7901 SI” value was determined as 1.3. Moreover, in assay [3], the IC50 stood at 2590 ± 100 nM and the “HePG2 SI” value was found to be 4.1. In addition, in assay [4], the IC50 was determined as 6300 ± 200 nM and the “HeLa SI” value was determined as 1.7. In assay [5], inhibition was half-maximal at 2800 ± 100 nM (IC50) and the “K562 SI” value was 3.8. Besides, in assay [6], inhibition was half-maximal at 900 ± 100 nM (IC50) and the “THP-1 SI” value is 12.0. The IC50 in assay [7] was found to be 10600 ± 100 nM. Further, in assay [8], the IC50 was 4300 nM and the “Ave SI” value was 4.2.

`CN1C/C(=C\c2cccc(/N=C/c3cc(F)ccc3O)c2)C(=O)/C(=C/c2cccc(/N=C/c3cc(F)ccc3O)c2)C1` [4b]: in assay [1], the IC50 amounted to 4100 ± 400 nM and the “A549 SI” value is listed as 3.4. In addition, in assay [2], the IC50 stood at 1400 ± 200 nM and the “SGC7901 SI” value is listed as 10.0. In addition, in assay [3], the IC50 is 1070 ± 100 nM and the “HePG2 SI” value was 12.9. Moreover, in assay [4], the IC50 came to 3500 ± 100 nM and the “HeLa SI” value was 4.0. For the same compound, in assay [5], the half-inhibitory concentration (IC50) amounted to 2150 ± 1000 nM and the “K562 SI” value is 6.4. Also, in assay [6], half-maximal inhibition (IC50) required 1200 ± 30 nM and the “THP-1 SI” value came to 11.5. Also, the IC50 in assay [7] amounted to 13800 ± 100 nM. In assay [8], the IC50 turned out to be 2200 nM and the “Ave SI” value is 8.0.

Consider `CN1C/C(=C\c2cccc(/N=C/c3cc(Br)ccc3O)c2)C(=O)/C(=C/c2cccc(/N=C/c3cc(Br)ccc3O)c2)C1` [4c], for which, in assay [1], inhibition was half-maximal at 9000 ± 800 nM (IC50) and the “A549 SI” value came to 1.4. Further, in assay [2], the half-maximal inhibitory concentration (IC50) came to 3000 ± 300 nM and the “SGC7901 SI” value is 4.3. Further, in assay [3], the IC50 is 3540 ± 100 nM and the “HePG2 SI” value is given as 3.6. In assay [4], the IC50 was 4700 ± 100 nM and the “HeLa SI” value came out at 2.8. Moreover, in assay [5], the IC50 amounted to 6200 ± 700 nM and the “K562 SI” value amounted to 2.1. Also, in assay [6], the IC50 came out at 2500 ± 200 nM and the “THP-1 SI” value stood at 5.1. In assay [7], this compound gave an IC50 of 12800 ± 200 nM. Moreover, in assay [8], the half-maximal inhibitory concentration (IC50) amounted to 4800 nM and the “Ave SI” value is given as 3.2.

On to `COc1ccc(/C=N/c2cccc(/C=C3\CN(C)C/C(=C\c4cccc(/N=C/c5ccc(OC)cc5O)c4)C3=O)c2)c(O)c1` [4d], for which the half-inhibitory concentration (IC50) in assay [1] is 2600 ± 500 nM; in assay [2], 2300 ± 100 nM; in assay [3], 1110 ± 100 nM; in assay [4], 4100 ± 100 nM; in assay [5] it was 2000 ± 20 nM; in assay [6], 1000 ± 30 nM. Moreover, the IC50 is 11700 ± 100 nM in assay [7] and 2200 nM in assay [8]. Besides, the “A549 SI” value in assay [1] amounted to 4.4. In addition, the “SGC7901 SI” value in assay [2] is 5.1. Moreover, the “HePG2 SI” value in assay [3] is 10.6. The “HeLa SI” value in assay [4] is 2.8. In addition, the “K562 SI” value in assay [5] came out at 6.0. Also, the “THP-1 SI” value in assay [6] stood at 12.3. Also, the “Ave SI” value in assay [8] was found to be 6.9.

Take `COc1cc(Br)cc(/C=N/c2cccc(/C=C3\CN(C)C/C(=C\c4cccc(/N=C/c5cc(Br)cc(OC)c5O)c4)C3=O)c2)c1O` [4e]: in assay [1], the IC50 worked out at 1500 ± 300 nM and the “A549 SI” value stood at 7.2. For the same compound, in assay [2], the IC50 turned out to be 2000 ± 300 nM and the “SGC7901 SI” value was found to be 5.4. Besides, in assay [3], the IC50 was found to be 1270 ± 20 nM and the “HePG2 SI” value was determined as 8.6. Moreover, in assay [4], the IC50 came to 2600 ± 100 nM and the “HeLa SI” value was 4.2. In assay [5], 1800 ± 10 nM corresponded to half-maximal inhibition (IC50) and the “K562 SI” value turned out to be 5.9. Moreover, in assay [6], half-maximal inhibition (IC50) required 900 ± 100 nM and the “THP-1 SI” value was 11.8. It took 10900 ± 200 nM to reach half-maximal inhibition in assay [7] (IC50). Moreover, in assay [8], the IC50 is 1700 nM and the “Ave SI” value was 7.2.

Regarding `O=C1/C(=C/c2cc(/N=C/c3cccc(O)c3O)ccc2F)CNC/C1=C\c1cc(/N=C/c2cccc(O)c2O)ccc1F` [5a], in assay [1], 2800 ± 200 nM corresponded to half-maximal inhibition (IC50) and the “A549 SI” value stood at 6.4. Besides, in assay [2], the IC50 was 1600 ± 100 nM and the “SGC7901 SI” value was found to be 11.2. Further, in assay [3], the midpoint of inhibition, the IC50, lay at 1800 ± 50 nM and the “HePG2 SI” value was 9.7. In assay [4], the IC50 was found to be 1100 ± 400 nM and the “HeLa SI” value came to 15.0. In assay [5], it took 1500 ± 100 nM to reach half-maximal inhibition (IC50) and the “K562 SI” value worked out at 11.7. Besides, in assay [6], the midpoint of inhibition, the IC50, lay at 1000 ± 300 nM and the “THP-1 SI” value is 18.5. Further, 17600 ± 1000 nM corresponded to half-maximal inhibition in assay [7] (IC50). In assay [8], the IC50 turned out to be 1600 nM and the “Ave SI” value came out at 12.1.

Consider `O=C1/C(=C/c2cc(/N=C/c3cc(O)ccc3O)ccc2F)CNC/C1=C\c1cc(/N=C/c2cc(O)ccc2O)ccc1F` [5b], for which, in assay [1], the IC50 came out at 3000 ± 100 nM and the “A549 SI” value was determined as 4.8. For the same compound, in assay [2], half-maximal inhibition (IC50) required 1300 ± 200 nM and the “SGC7901 SI” value amounted to 10.9. Moreover, in assay [3], the midpoint of inhibition, the IC50, lay at 3300 ± 200 nM and the “HePG2 SI” value came to 4.3. Besides, in assay [4], half-maximal inhibition (IC50) was put at 4200 ± 500 nM and the “HeLa SI” value came out at 3.4. Also, in assay [5], the IC50 was found to be 5700 ± 400 nM and the “K562 SI” value is reported as 2.5. Moreover, in assay [6], the midpoint of inhibition, the IC50, lay at 2200 ± 100 nM and the “THP-1 SI” value is on record as 6.4. The same compound displayed an IC50 in assay [7] of 14100 ± 1000 nM. In assay [8], the half-maximal inhibitory concentration (IC50) was determined as 3300 nM and the “Ave SI” value is 5.4.
